# Legend:
# [1] = head-to-tail lactamisation of unprotected peptide acyl azide (from C-terminal hydrazide, 20 equiv NaNO2, pH 3, -15 C, then NaHCO3 to pH ~7), biphasic EtOAc/buffer; details: aq phosphate buffer (6 M GdmCl, 50 mM NaH2PO4, 1.5 mM EDTA) / EtOAc biphasic, 3.0 mM, 2 steps
# [2] = as series A (acyl azide from hydrazide, biphasic EtOAc/buffer), isolated after prep HPLC; details: aq phosphate buffer (6 M GdmCl) / EtOAc biphasic, 3.0 mM, 0.25 h, 2 steps
# [3] = lactamisation (head-to-tail or side-chain-to-tail) of unprotected peptide acyl azide (from hydrazide, 20 equiv NaNO2, pH 3, -15 C, then NaHCO3 to pH ~7), MeCN cosolvent; details: from C=CC[C@H](NC(=O)[C@H](CC(C)C)NC(=O)[C@H](CC(C)C)N(C)C(=O)[C@H](C)NC(=O)[C@H](Cc1ccc(O)c([N+](=O)[O-])c1)NC(=O)[C@H](CC(C)C)N(C)C(=O)[C@@H](N)Cc1cn(C(C)(C)C=C)c2ccccc12)C(=O)N=[N+]=[N-]; 21-membered ring; aq phosphate buffer (6 M GdmCl) diluted with 2 vol 50% MeCN/water; 2.2 mM; 0.27 h; 2 steps
smiles,measurement,setting,value
C=CC(C)(C)n1cc(C[C@@H]2NC(=O)[C@H](C/C=C/C)NC(=O)[C@H](CC(C)C)NC(=O)[C@H](CC(C)C)N(C)C(=O)[C@H](C)NC(=O)[C@H](Cc3ccc(O)c([N+](=O)[O-])c3)NC(=O)[C@H](CC(C)C)N(C)C2=O)c2ccccc21,"ring closure, conversion by HPLC","[1]; from C=CC(C)(C)n1cc(C[C@H](N)C(=O)N(C)[C@@H](CC(C)C)C(=O)N[C@@H](Cc2ccc(O)c([N+](=O)[O-])c2)C(=O)N[C@@H](C)C(=O)N(C)[C@@H](CC(C)C)C(=O)N[C@@H](CC(C)C)C(=O)N[C@@H](C/C=C/C)C(=O)N=[N+]=[N-])c2ccccc21, 21-membered ring, 0.25 h",84%
same,"ring closure, yield over several steps","[2]; from C=CC(C)(C)n1cc(C[C@H](N)C(=O)N(C)[C@@H](CC(C)C)C(=O)N[C@@H](Cc2ccc(O)c([N+](=O)[O-])c2)C(=O)N[C@@H](C)C(=O)N(C)[C@@H](CC(C)C)C(=O)N[C@@H](CC(C)C)C(=O)N[C@@H](C/C=C/C)C(=O)N=[N+]=[N-])c2ccccc21, 21-membered ring",39%
C=CC(C)(C)n1cc(C[C@@H]2NC(=O)[C@H](Cc3ccccc3)NC(=O)[C@H](CC(C)C)NC(=O)[C@H](CC(C)C)N(C)C(=O)[C@H](C)NC(=O)[C@H](Cc3ccc(O)c([N+](=O)[O-])c3)NC(=O)[C@H](CC(C)C)N(C)C2=O)c2ccccc21,"ring closure, conversion by HPLC","[1]; from C=CC(C)(C)n1cc(C[C@H](N)C(=O)N(C)[C@@H](CC(C)C)C(=O)N[C@@H](Cc2ccc(O)c([N+](=O)[O-])c2)C(=O)N[C@@H](C)C(=O)N(C)[C@@H](CC(C)C)C(=O)N[C@@H](CC(C)C)C(=O)N[C@@H](Cc2ccccc2)C(=O)N=[N+]=[N-])c2ccccc21, 21-membered ring, 0.25 h",63%
same,"ring closure, yield over several steps","[2]; from C=CC(C)(C)n1cc(C[C@H](N)C(=O)N(C)[C@@H](CC(C)C)C(=O)N[C@@H](Cc2ccc(O)c([N+](=O)[O-])c2)C(=O)N[C@@H](C)C(=O)N(C)[C@@H](CC(C)C)C(=O)N[C@@H](CC(C)C)C(=O)N[C@@H](Cc2ccccc2)C(=O)N=[N+]=[N-])c2ccccc21, 21-membered ring",22%
C=CC[C@@H]1NC(=O)[C@H](CC(C)C)NC(=O)[C@H](CC(C)C)N(C)C(=O)[C@H](C)NC(=O)[C@H](Cc2ccc(O)c([N+](=O)[O-])c2)NC(=O)[C@H](CC(C)C)N(C)C(=O)[C@@H](Cc2cn(C)c3ccccc23)NC1=O,"ring closure, conversion by HPLC","[1]; from C=CC[C@H](NC(=O)[C@H](CC(C)C)NC(=O)[C@H](CC(C)C)N(C)C(=O)[C@H](C)NC(=O)[C@H](Cc1ccc(O)c([N+](=O)[O-])c1)NC(=O)[C@H](CC(C)C)N(C)C(=O)[C@H](N)Cc1cn(C)c2ccccc12)C(=O)N=[N+]=[N-], 21-membered ring",95%
C=CC[C@@H]1NC(=O)[C@H](CC(C)C)NC(=O)[C@H](CC(C)C)N(C)C(=O)[C@H](C)NC(=O)[C@H](Cc2ccc(O)c([N+](=O)[O-])c2)NC(=O)[C@H](CC(C)C)N(C)C(=O)[C@H](Cc2cn(C(C)(C)C=C)c3ccccc23)NC1=O,"ring closure, yield over several steps","[2]; from C=CC[C@H](NC(=O)[C@H](CC(C)C)NC(=O)[C@H](CC(C)C)N(C)C(=O)[C@H](C)NC(=O)[C@H](Cc1ccc(O)c([N+](=O)[O-])c1)NC(=O)[C@H](CC(C)C)N(C)C(=O)[C@@H](N)Cc1cn(C(C)(C)C=C)c2ccccc12)C(=O)N=[N+]=[N-], 21-membered ring",56%
same,"ring closure, conversion by HPLC",[3],90%
CC[C@@H]1NC(=O)[C@H](CC(C)C)N(C)C(=O)[C@H](C(C)C)N(C)C(=O)[C@H](CC(C)C)N(C)C(=O)[C@H](CC(C)C)N(C)C(=O)[C@@H](C)NC(=O)[C@H](C)NC(=O)[C@H](CC(C)C)N(C)C(=O)[C@H](C(C)C)NC(=O)[C@H](CC(C)C)N(C)C(=O)CN(C)C1=O,"ring closure, conversion by HPLC","[1]; from CC[C@H](NC(=O)[C@H](CC(C)C)N(C)C(=O)[C@H](C(C)C)N(C)C(=O)[C@H](CC(C)C)N(C)C(=O)[C@H](CC(C)C)N(C)C(=O)[C@@H](C)N)C(=O)N(C)CC(=O)N(C)[C@@H](CC(C)C)C(=O)N[C@H](C(=O)N(C)[C@@H](CC(C)C)C(=O)N[C@@H](C)C(=O)N=[N+]=[N-])C(C)C, 33-membered ring, 0.25 h",61%
same,"ring closure, yield over several steps","[2]; from CC[C@H](NC(=O)[C@H](CC(C)C)N(C)C(=O)[C@H](C(C)C)N(C)C(=O)[C@H](CC(C)C)N(C)C(=O)[C@H](CC(C)C)N(C)C(=O)[C@@H](C)N)C(=O)N(C)CC(=O)N(C)[C@@H](CC(C)C)C(=O)N[C@H](C(=O)N(C)[C@@H](CC(C)C)C(=O)N[C@@H](C)C(=O)N=[N+]=[N-])C(C)C, 33-membered ring",22%
CC(C)C[C@@H]1NC(=O)[C@H](CC(C)C)N(C)C(=O)[C@H](C)NC(=O)[C@H](Cc2ccc(O)c([N+](=O)[O-])c2)NC(=O)[C@H](CC(C)C)N(C)C(=O)[C@H](C)NC(=O)[C@H](Cc2ccccc2)NC1=O [H-Ala-N-Me-Leu-Tyr(3-NO2)-Ala-N-Me-Leu-Leu-Phe-N3],"ring closure, conversion by HPLC","[1]; from CC(C)C[C@H](NC(=O)[C@H](CC(C)C)N(C)C(=O)[C@H](C)NC(=O)[C@H](Cc1ccc(O)c([N+](=O)[O-])c1)NC(=O)[C@H](CC(C)C)N(C)C(=O)[C@H](C)N)C(=O)N[C@@H](Cc1ccccc1)C(=O)N=[N+]=[N-], 21-membered ring, 0.25 h",88%
same,"ring closure, yield over several steps","[2]; from CC(C)C[C@H](NC(=O)[C@H](CC(C)C)N(C)C(=O)[C@H](C)NC(=O)[C@H](Cc1ccc(O)c([N+](=O)[O-])c1)NC(=O)[C@H](CC(C)C)N(C)C(=O)[C@H](C)N)C(=O)N[C@@H](Cc1ccccc1)C(=O)N=[N+]=[N-], 21-membered ring",40%
C=CC[C@@H]1NC(=O)[C@H](CC(C)C)N(C)C(=O)[C@H](C(C)C)NC(=O)[C@H](Cc2ccccc2)NC(=O)[C@H](C)NC(=O)[C@H](CC(C)C)N(C)C(=O)[C@H](Cc2cn(C)c3ccccc23)NC1=O [H-Trp(1-Me)-N-Me-Leu-Ala-Phe-Val-N-Me-Leu-allylGly-N3],"ring closure, conversion by HPLC","[1]; from C=CC[C@H](NC(=O)[C@H](CC(C)C)N(C)C(=O)[C@@H](NC(=O)[C@H](Cc1ccccc1)NC(=O)[C@H](C)NC(=O)[C@H](CC(C)C)N(C)C(=O)[C@@H](N)Cc1cn(C)c2ccccc12)C(C)C)C(=O)N=[N+]=[N-], 21-membered ring, 0.25 h",75%
same,"ring closure, yield over several steps","[2]; from C=CC[C@H](NC(=O)[C@H](CC(C)C)N(C)C(=O)[C@@H](NC(=O)[C@H](Cc1ccccc1)NC(=O)[C@H](C)NC(=O)[C@H](CC(C)C)N(C)C(=O)[C@@H](N)Cc1cn(C)c2ccccc12)C(C)C)C(=O)N=[N+]=[N-], 21-membered ring",50%
C=CC[C@@H]1NC(=O)[C@H](CC(C)C)NC(=O)[C@H](CC(C)C)N(C)C(=O)[C@H](C)NC(=O)[C@H](Cc2ccc(O)c([N+](=O)[O-])c2)NC(=O)[C@H](CC(C)C)N(C)C(=O)[C@H](Cc2cn(C)c3ccccc23)NC1=O [H-Trp(1-Me)-N-Me-Leu-Tyr(3-NO2)-Ala-N-Me-Leu-Leu-allylGly-N3],"ring closure, conversion by HPLC","[1]; from C=CC[C@H](NC(=O)[C@H](CC(C)C)NC(=O)[C@H](CC(C)C)N(C)C(=O)[C@H](C)NC(=O)[C@H](Cc1ccc(O)c([N+](=O)[O-])c1)NC(=O)[C@H](CC(C)C)N(C)C(=O)[C@@H](N)Cc1cn(C)c2ccccc12)C(=O)N=[N+]=[N-], 21-membered ring, 0.25 h",93%
same,"ring closure, yield over several steps","[2]; from C=CC[C@H](NC(=O)[C@H](CC(C)C)NC(=O)[C@H](CC(C)C)N(C)C(=O)[C@H](C)NC(=O)[C@H](Cc1ccc(O)c([N+](=O)[O-])c1)NC(=O)[C@H](CC(C)C)N(C)C(=O)[C@@H](N)Cc1cn(C)c2ccccc12)C(=O)N=[N+]=[N-], 21-membered ring",58%
CC(C)C[C@@H]1NC(=O)[C@H](CC(C)C)N(C)C(=O)[C@H](C)NC(=O)[C@H](Cc2ccc(O)c([N+](=O)[O-])c2)NC(=O)[C@H](CC(C)C)N(C)C(=O)[C@H](Cc2c[nH]c3ccccc23)NC(=O)[C@H](C)NC1=O [H-Trp-N-Me-Leu-Tyr(3-NO2)-Ala-N-Me-Leu-Leu-Ala-N3],"ring closure, conversion by HPLC","[1]; from CC(C)C[C@H](NC(=O)[C@H](CC(C)C)N(C)C(=O)[C@H](C)NC(=O)[C@H](Cc1ccc(O)c([N+](=O)[O-])c1)NC(=O)[C@H](CC(C)C)N(C)C(=O)[C@@H](N)Cc1c[nH]c2ccccc12)C(=O)N[C@@H](C)C(=O)N=[N+]=[N-], 21-membered ring, 0.25 h",87%
same,"ring closure, yield over several steps","[2]; from CC(C)C[C@H](NC(=O)[C@H](CC(C)C)N(C)C(=O)[C@H](C)NC(=O)[C@H](Cc1ccc(O)c([N+](=O)[O-])c1)NC(=O)[C@H](CC(C)C)N(C)C(=O)[C@@H](N)Cc1c[nH]c2ccccc12)C(=O)N[C@@H](C)C(=O)N=[N+]=[N-], 21-membered ring",52%

# — publication PMC11191687
